Converted amounts (≈) assume the structure as drawn.
Conditions: buffer; pH 7.4; 200.0 µM
Work on `O=C(c1ccccc1)N1CCCC(C(=O)N2CCN(c3ccccc3)CC2)C1` (stereo unspecified) yielded a solubility kinetic of 46.8 µg/mL (≈ 124 µM).
In the case of `CCC(CC)C(=O)NCc1ccc(Cl)cc1`, the solubility kinetic was over 36 µg/mL.
Compound `COc1ccc(C(=O)NCC(=O)OCC(=O)NC2CCCCCC2)cc1` has a solubility kinetic of over 54.4 µg/mL.
Compound `Cc1ccc2nc(N3CCN(CCO)CC3)nc(-c3ccccc3)c2c1` has a solubility kinetic of over 52.3 µg/mL.
`COc1ccc2nc(N3C(=O)CNC3=S)sc2c1` gave a solubility kinetic of 19.5 µg/mL (≈ 69.8 µM).
With `CCOC(=O)Cc1csc(NC(=O)Nc2cccc(OC)c2)n1` the solubility kinetic was 5.8 µg/mL (≈ 17.3 µM).
Work on `Cc1cccc(CN2CCN(c3ccc(Cl)cc3)CC2)c1` yielded a solubility kinetic of 2 µg/mL (≈ 6.65 µM).
For `CSCC[C@H](NC(=O)Nc1ccc(OC(F)(F)F)cc1)C(=O)O`, the solubility kinetic was over 52.8 µg/mL.
Compound `CN(C)CCCN(C(=O)c1ccco1)c1nc2ccc(F)cc2s1.Cl` has a solubility kinetic of 55 µg/mL.
For `C=CCSc1nc(C)cc2c1C(=O)OC2`, the solubility kinetic was over 33.2 µg/mL.
Work on `CCOC(=O)C1=C(C)C(c2ccc(OC)cc2)NC(=O)N1` (stereo unspecified) yielded a solubility kinetic of over 43.5 µg/mL.
For `CCN(c1ccccc1)S(=O)(=O)c1c(C)noc1C`, the solubility kinetic was 31.4 µg/mL (≈ 112 µM).
With `O=c1oc2ccccc2cc1-c1csc(Nc2ccc(O)cc2)n1` the solubility kinetic was 1.7 µg/mL (≈ 5.05 µM).
`CCOC(=O)C1(CCOc2ccccc2)CCN(CC2CC2)CC1` gave a solubility kinetic of 45.7 µg/mL (≈ 138 µM).
`COc1cccc(NC(=O)CNC(=O)c2ccc([N+](=O)[O-])cc2)c1` gave a solubility kinetic of 2.9 µg/mL (≈ 8.81 µM).
For `O=C(CNS(=O)(=O)c1ccccc1)NCC(=O)N1CCCCC1`, the solubility kinetic was over 50.9 µg/mL.
Work on `O=C(COC(=O)[C@@H]1CCCN1C(=O)c1cccs1)Nc1cccc(Cl)c1` yielded a solubility kinetic of 26.9 µg/mL (≈ 68.5 µM).
With `COc1ccc(NC(=O)CN(C)C(=O)C2=COCCO2)cc1` the solubility kinetic was over 45.9 µg/mL.
For `C=CCN1CCN(C(=O)c2ccc(-c3ccccc3)cc2)CC1`, the solubility kinetic was 32.3 µg/mL (≈ 105 µM).
`O=C(Nc1ccc(Br)cc1)c1cnc[nH]1` showed a solubility kinetic of over 39.9 µg/mL.
In the case of `O=C(CSc1ncccc1C(=O)O)NC1CCCCC1`, the solubility kinetic was 39.8 µg/mL (≈ 135 µM).
In the case of `O=C1CN(C(=O)/C=C/c2ccc(Br)cc2)CCN1`, the solubility kinetic was 41.8 µg/mL (≈ 135 µM).
In the case of `O=C(COC(=O)c1ccccc1)Nc1ncc([N+](=O)[O-])s1`, the solubility kinetic was over 46.1 µg/mL.
In the case of `Cc1ccc(N2C(=O)CCC2=O)c(C)c1`, the solubility kinetic was 28 µg/mL (≈ 138 µM).
`Cc1cc(C)c(C#N)c(Nc2ccccc2F)n1` gave a solubility kinetic of 5.1 µg/mL (≈ 21.1 µM).
For `CN1CCN(c2ccc(CNS(=O)(=O)c3ccccc3)cc2)CC1`, the solubility kinetic was 12.6 µg/mL (≈ 36.5 µM).
With `CCC1(C)SC(N)=NN1C(C)=O` (stereo unspecified) the solubility kinetic was over 28.1 µg/mL.
For `O=C1c2ccsc2SCCN1Cc1c(F)cccc1Cl`, the solubility kinetic was 44.4 µg/mL (≈ 135 µM).
Work on `O=C(CN1C(=O)NC2(CCOc3ccccc32)C1=O)NCCc1ccccc1` (stereo unspecified) yielded a solubility kinetic of over 56.9 µg/mL.
With `CCCn1c(N)c(N(CCOC)C(=O)CSc2c(Cl)cccc2Cl)c(=O)[nH]c1=O` the solubility kinetic was 53 µg/mL (≈ 115 µM).
For `CCc1cc(N2CCOCC2)cc2c1[nH]c1ccccc12`, the solubility kinetic was over 42.1 µg/mL.
In the case of `CCCC(=O)OCC(=O)Nc1ccc2[nH]c(=O)[nH]c2c1`, the solubility kinetic was over 41.6 µg/mL.
Compound `C/C(=N\O)C(C)(C)Nc1ccc(Cl)cc1` has a solubility kinetic of 32.1 µg/mL (≈ 142 µM).
Compound `O=C(NCCc1ccc(F)cc1)Nc1ccccc1` has a solubility kinetic of 6.1 µg/mL (≈ 23.6 µM).
With `COC(c1ccccc1)c1nc2ccccc2[nH]c1=O` (stereo unspecified) the solubility kinetic was over 39.9 µg/mL.
Compound `CCc1ccc(/C=C(\C#N)C(=O)NC2CCS(=O)(=O)C2)cc1` (stereo unspecified) has a solubility kinetic of 7.8 µg/mL (≈ 24.5 µM).
`CCCCNC(=O)CSc1nc2ccc(C)cc2[nH]1` showed a solubility kinetic of over 41.6 µg/mL.
With `OCCNc1nc(-c2ccccc2)nc2c1oc1ccccc12` the solubility kinetic was 0.3 µg/mL (≈ 0.983 µM).
With `O=C(Nc1cccc(C(=O)Nc2ccc(Cl)cn2)c1)c1ccccc1` the solubility kinetic was 0.7 µg/mL (≈ 1.99 µM).
With `O=C(Nc1cc(C(=O)N2CCN(c3ccccc3)CC2)ccc1Cl)c1cccs1` the solubility kinetic was 4.8 µg/mL (≈ 11.3 µM).
Compound `Cc1onc(-c2c(F)cccc2Cl)c1C(=O)NC1CC1` has a solubility kinetic of over 44.2 µg/mL.
With `CCCCc1ccc(NC(=O)c2cnccn2)cc1` the solubility kinetic was 4 µg/mL (≈ 15.7 µM).
Compound `CCCCCOc1ccc(C(=O)OC(C)C(=O)NCc2ccco2)cc1` (stereo unspecified) has a solubility kinetic of 2.9 µg/mL (≈ 8.07 µM).
Compound `CC1CCN(C(=S)c2ccc(N(C)C)cc2)CC1` has a solubility kinetic of 5.4 µg/mL (≈ 20.6 µM).
`CNC(=O)CSc1nc(SC)ns1` showed a solubility kinetic of over 35.3 µg/mL.
`COc1ccc(OC)c(C(C)NC(=S)NC2CCCCC2)c1` (stereo unspecified) gave a solubility kinetic of 28 µg/mL (≈ 86.8 µM).
Work on `CCc1ccc(OCCCCCn2ccnc2)cc1` yielded a solubility kinetic of 19.5 µg/mL (≈ 75.5 µM).
`COc1ccc(CNC(=O)Cc2cccs2)cc1` gave a solubility kinetic of 26.9 µg/mL (≈ 103 µM).
Work on `CCOc1ccc(NC(=O)C(=O)NCc2ccncc2)cc1` yielded a solubility kinetic of 12.5 µg/mL (≈ 41.8 µM).
Work on `COc1ccccc1CCC(=O)Oc1ccc(C#N)cc1OC` yielded a solubility kinetic of 9.5 µg/mL (≈ 30.5 µM).
`Cc1cc(C(=O)NCc2ccc3c(c2)OCO3)ccc1[N+](=O)[O-]` gave a solubility kinetic of 38.7 µg/mL (≈ 123 µM).
`N#C/C(=C/c1ccc(F)cc1)S(=O)(=O)c1ccccc1` showed a solubility kinetic of 37.5 µg/mL (≈ 131 µM).
Compound `O=C(Nc1ccc2nc(N3CCOCC3)sc2c1)c1ccccc1` has a solubility kinetic of 7.2 µg/mL (≈ 21.2 µM).
Work on `COc1ccc(C)cc1NC(=O)C1CCN(C(=O)c2ccco2)CC1` yielded a solubility kinetic of over 51.4 µg/mL.
Work on `CCOC(=O)C1CCN(C(=O)c2ccc3c(c2)OCCO3)CC1` yielded a solubility kinetic of 44.4 µg/mL (≈ 139 µM).
For `Fc1ccccc1NC(=S)Nc1ccc(CN2CCOCC2)cc1`, the solubility kinetic was 49.4 µg/mL (≈ 143 µM).
`Cc1ccc(NC(=O)NCCN2CCCCC2)cc1` showed a solubility kinetic of over 39.2 µg/mL.
Compound `C=CCSc1nc2sc3c(c2c(=O)n1CC)CCC3` has a solubility kinetic of 0.8 µg/mL (≈ 2.74 µM).
Work on `CCOc1ccc(NC(=O)NC(=O)N(C(C)C)S(C)(=O)=O)cc1` yielded a solubility kinetic of 43.1 µg/mL (≈ 126 µM).
`COc1ccc(CNC(=O)COc2cccnc2[N+](=O)[O-])cc1` gave a solubility kinetic of over 47.6 µg/mL.
Work on `NC(=O)C1CCCN(C(=O)CCCNC(=O)c2ccc(Cl)cc2)C1` (stereo unspecified) yielded a solubility kinetic of over 52.8 µg/mL.

From PubChem BioAssay AID1996
